Data on five molecules can be found in patent publication US9102977B2, “Method for analysis of cellular DNA content” (ChemoMetec A/S, priority 2010, dated 2015).

For assay [1], the system named is U2OS cells. As to the kind of experiment: Measurement of drug effects on cell cycle using acid lysis method (DNA content by DAPI image cytometry). Conditions: drug treatment for 20 hours, Nucleocounter NC-3000 (FIG. 5). Type of assay: cell-based, human. The method, then: U2OS cells were grown in RPMI+10% FCS to approximately 75% confluency in 6-well plates (Nunclon surface, Nunc) and then treated with the following drugs for 20 hours:
After drug treatment each of the wells was washed once with 1 mL of PBS and then incubated with 0.25 ml of lysis buffer (100 mM citrate buffer (pH 2.25), 0.5% Triton X-100, 5 μg/ml DAPI) for 5 minutes at 37° C. Prior to quantitative image cytometry (Nucleocounter NC-3000), the samples were neutralized by adding 0.25 ml stabilization buffer (500 mM citrate, pH 8.3).

Assay [2] relates to U2OS cells. Conditions: known/described effect; cited from earlier work.

For the molecule `CC[C@@]1(O)C(=O)OCc2c1cc1n(c2=O)Cc2cc3ccccc3nc2-1` [Camptothecin], the “cell cycle distribution (DNA content histogram)” value in assay [1] is recorded as “accumulation of S-G2 cells”. The “known effect of the drug on the cell cycle (arrest phase)” value (shortened to “known effect of the drug”) in assay [2] was 4. Camptothecin, CRT (S-G2 arrest):.
Regarding `COc1cc([C@@H]2c3cc4c(cc3[C@@H](O[C@@H]3O[C@@H]5CO[C@@H](C)O[C@H]5[C@H](O)[C@H]3O)[C@H]3COC(=O)[C@H]23)OCO4)cc(OC)c1O` [Etoposide], the “known effect of the drug” value in assay [2] is given as 5. Etoposide (S-G2 arrest):.
Take `NC(=O)NO` [Hydroxyurea]: the “known effect of the drug” value in assay [2] was 3. Hydroxyurea, HU (S arrest):.
Regarding `N[C@@H](Cn1ccc(=O)c(O)c1)C(=O)O` [L-mimosine], in assay [1], the “cell cycle distribution (DNA content histogram)” value is listed as “predominantly G1 peak”. Further, the “known effect of the drug” value in assay [2] is 2. L-mimosine (G1 arrest):.
On to `COC(=O)Nc1nc2ccc(C(=O)c3cccs3)cc2[nH]1` [Nocodazole], for which the “known effect of the drug” value in assay [2] is recorded as 1. Nocodazole (G2-M arrest):.
